Measured values published in patent US11226337B2, “Chemoproteomic profiling of protein electrophilic and oxidative post-translational modifications” (Zenagem, LLC, priority 2017, dated 2022).

Assays:
Assay in all cases: SILAC RP-ABPP
Assay type in all cases: cell-based
[1] = target: T1, ALDH2 Aldehyde dehydrogenase (P05091) (Homo sapiens, UniProt P05091); details: SILAC H/L, HEK293T
T1 construct: shared by both the endogenous and recombinant forms of these proteins; endogenous in cells; host or cells: HEK293T and MDA-MB-231
T1 sequence (P05091 18-517): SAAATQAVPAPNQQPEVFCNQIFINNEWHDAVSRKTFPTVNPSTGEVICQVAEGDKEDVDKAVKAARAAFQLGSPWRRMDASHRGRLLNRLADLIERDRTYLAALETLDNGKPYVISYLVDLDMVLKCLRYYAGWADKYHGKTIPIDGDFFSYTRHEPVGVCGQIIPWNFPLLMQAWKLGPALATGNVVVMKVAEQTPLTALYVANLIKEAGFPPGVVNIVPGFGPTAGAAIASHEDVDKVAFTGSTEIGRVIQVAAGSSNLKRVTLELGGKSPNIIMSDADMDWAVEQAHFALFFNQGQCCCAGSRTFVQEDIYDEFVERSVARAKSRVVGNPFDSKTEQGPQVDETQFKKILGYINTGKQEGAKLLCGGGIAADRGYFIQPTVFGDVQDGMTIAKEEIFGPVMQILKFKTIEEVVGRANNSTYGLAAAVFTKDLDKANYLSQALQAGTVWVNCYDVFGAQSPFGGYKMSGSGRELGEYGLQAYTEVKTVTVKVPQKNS
Outline: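 Heavy SILAC HEK293T or MDA-MB-231 cells were treated with hydrazine probe 1 (3 mM, 0.5 h); light cells received non-clickable hydrazine 3 at the same concentration (enrichment) or probe plus 10× competitor 3 (competition). Lysates were mixed, clicked to biotin-azide and analysed by LC-MS; values are median heavy:light peptide ratios averaged over ≥3 replicates.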

[2] = target: T2, IBA57 Putative transferase CAF17 (Q5T440) (Homo sapiens, UniProt Q5T440); details: SILAC H/L, HEK293T
T2 construct: shared by both the endogenous and recombinant forms of these proteins; endogenous in cells; host or cells: HEK293T and MDA-MB-231
T2 sequence (Q5T440 40-356): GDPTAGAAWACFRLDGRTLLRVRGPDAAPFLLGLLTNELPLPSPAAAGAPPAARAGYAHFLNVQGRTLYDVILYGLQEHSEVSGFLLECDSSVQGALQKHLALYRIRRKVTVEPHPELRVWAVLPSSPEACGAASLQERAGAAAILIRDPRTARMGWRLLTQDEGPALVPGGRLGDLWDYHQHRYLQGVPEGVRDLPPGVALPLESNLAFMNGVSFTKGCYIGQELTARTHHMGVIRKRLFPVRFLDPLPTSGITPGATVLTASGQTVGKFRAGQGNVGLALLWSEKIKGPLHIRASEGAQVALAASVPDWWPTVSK

[3] = target: T3, LIPA Lysosomal acid lipase/cholesteryl ester (P38571) (Homo sapiens, UniProt P38571); details: SILAC H/L, MDA-MB-231
T3 construct: In Situ Labelling of Cells with Hydrazine Probes for MS Experiments; endogenous in cells
T3 sequence (P38571 77-399): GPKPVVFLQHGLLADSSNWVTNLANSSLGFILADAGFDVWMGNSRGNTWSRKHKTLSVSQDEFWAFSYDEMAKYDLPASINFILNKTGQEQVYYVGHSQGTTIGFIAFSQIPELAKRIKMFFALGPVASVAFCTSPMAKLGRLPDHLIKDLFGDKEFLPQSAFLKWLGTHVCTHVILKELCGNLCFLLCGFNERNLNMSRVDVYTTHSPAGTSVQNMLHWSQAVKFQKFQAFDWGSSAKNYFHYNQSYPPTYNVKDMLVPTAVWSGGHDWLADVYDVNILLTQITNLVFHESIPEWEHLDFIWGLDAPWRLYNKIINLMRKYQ

| enrichment ratioavg ([1]; probe 2 1 mM 0.5 h vs probe 4) | competition ratioavg ([1]; probe 2 vs probe 2+10x probe 4) | enrichment ratioavg ([2]; probe 2 1 mM 0.5 h vs probe 4) | competition ratioavg ([2]; probe 2 vs probe 2+10x probe 4) | enrichment ratioavg ([3]; probe 2 1 mM 0.5 h vs probe 4) | competition ratioavg ([3]; probe 2 vs probe 2+10x probe 4) | Structure (SMILES) | enrichment ratioavg ([1]; probe 1 3 mM 0.5 h vs probe 3) | competition ratioavg ([1]; probe 1 vs probe 1+10x probe 3) | enrichment ratioavg ([2]; probe 1 3 mM 0.5 h vs probe 3) | competition ratioavg ([2]; probe 1 vs probe 1+10x probe 3) | enrichment ratioavg ([3]; probe 1 3 mM 0.5 h vs probe 3) | competition ratioavg ([3]; probe 1 vs probe 1+10x probe 3) |
| --- | --- | --- | --- | --- | --- | --- | --- | --- | --- | --- | --- | --- |
| – | – | – | – | – | – | C#CCNN.Cl [probe 1, prop-2-yn-1-ylhydrazine hydrochloride] | 8 | 2 | 14 | 3 | 7 | 4 |
| 11 | 6 | 9 | 4 | 17 | 3 | C#CCCNC(=O)c1ccc(NN)cc1.Cl [probe 2, N-(but-3-yn-1-yl)-4-hydrazinylbenzamide hydrochloride] | – | – | – | – | – | – |
